From ChEMBL document CHEMBL1133646 (J Med Chem, 2000) come the findings set out here.

Common to all, as to assay type: functional
The test system of assay [1] is Mus musculus. The experiment in a line: Mean day to death of mice at 0 mg/kg/day.
Assay [2] deals with Mus musculus. Briefly: Mean day to death of mice at 0.1 mg/kg/day.
For assay [3], the system named is Mus musculus. The experiment in a line: Survival rate of mice infected with A/Turkey/Mass/76 XA/Beijing/32/92 (H6N2) virus at a dose of 0 mg/kg/day; 1/9 (1 survived out of 9 mice).
Assay [4] relates to Mus musculus. The experiment in a line: Survival rate of mice infected with A/Turkey/Mass/76 XA/Beijing/32/92 (H6N2) virus at a dose of 0.1 mg/kg/day; 7/9 (7 survived out of 9 mice).
Assay [5] deals with Mus musculus. The experiment in a line: Survival rate of mice infected with A/Turkey/Mass/76 XA/Beijing/32/92 (H6N2) virus at a dose of 1.0 mg/kg/day; 9/9 (9 survived out of 9 mice).

As for `CCC(CC)[C@H](NC(C)=O)[C@@H]1[C@H](O)[C@@H](C(=O)O)C[C@H]1NC(=N)N` [PERAMIVIR ANHYDROUS], the Mean day came to 8.8 in the assay on Mus musculus [1] and 9 with Mus musculus [2]. For the same molecule, the Survival in the assay on Mus musculus [3] is recorded as 1; with Mus musculus [4] it was less than 7; in the assay on Mus musculus [5], less than 9.
